Experimental data taken from US20020065303A1, “Bivalent phenylene inhibitors of factor Xa” (priority 2000, published 2002).

Key:
Assay type in all cases: biochemical
[1] = target: Factor Xa (Homo sapiens, UniProt P00742); experiment: Factor Xa amidolytic assay (chromogenic substrate S-2765); settings: room temperature, pH 7.5, 5 min preincubation; read-out: Inhibitory Activity (IC50) Factor Xa Xa
Experimental: (§1) The compounds of the present invention are dissolved in buffer to give solutions containing concentrations such that assay concentrations range from about 0 to about 100 μM. In the assays for thrombin, prothrombinase and factor Xa, a synthetic chromogenic substrate is added to a solution containing test compound and the enzyme of interest and the residual catalytic activity of that enzyme is determined spectrophotometrically. The IC50 of a compound is determined from the substrate turnover. The IC50 is the concentration of test compound giving about 50% inhibition of the substrate turnover.
(§2) The factor Xa and thrombin assays are performed at room temperature, in 0.02 M Tris.HCl buffer, pH 7.5, containing 0.15 M NaCl. The rates of hydrolysis of the para-nitroanilide substrate S-2765 (Chromogenix) for factor Xa, and the substrate Chromozym TH (Boehringer Mannheim) for thrombin following preincubation of the enzyme with inhibitor for 5 minutes at room temperature, and are determined using the Softmax 96-well plate reader (Molecular Devices), monitored at 405 nm to measure the time dependent appearance of p-nitroaniline.

[2] = target: Thrombin (Homo sapiens, UniProt P00734); experiment: Thrombin amidolytic assay (chromogenic substrate Chromozym TH); settings: room temperature, pH 7.5, 5 min preincubation; read-out: Inhibitory Activity (IC50) Thrombin IIa
Experimental: as §1, §2

[3] = target: Prothrombinase (Homo sapiens, UniProt P00742); experiment: Prothrombinase inhibition assay, plasma free system; settings: factor Xa 0.5 nM, factor Va 2 nM, PS:PC, 5 min preincubation; read-out: Inhibitory Activity (IC50) Prothrombinase IIase
Experimental: as §1
The prothrombinase inhibition assay is performed in a plasma free system with modifications to the method described by Sinha, U. et al., Thromb. Res., 75, 427-436 (1994). Specifically, the activity of the prothrombinase complex is determined by measuring the time course of thrombin generation using the p-nitroanilide substrate Chromozym TH. The assay consists of preincubation (5 minutes) of selected compounds to be tested as inhibitors with the complex formed from factor Xa (0.5 nM), factor Va (2 nM), phosphatidyl serine:phosphatidyl choline (25:75, 20 μM) in 20 mM Tris.HCl buffer, pH 7.5, containing 0.15 M NaCl, 5 mM CaCl2 and 0.1% bovine serum albumin. […] The rate of substrate cleavage is monitored at 405 nm for two minutes. […]

Chain of Factor Xa (P00742 235-488 limits assumed): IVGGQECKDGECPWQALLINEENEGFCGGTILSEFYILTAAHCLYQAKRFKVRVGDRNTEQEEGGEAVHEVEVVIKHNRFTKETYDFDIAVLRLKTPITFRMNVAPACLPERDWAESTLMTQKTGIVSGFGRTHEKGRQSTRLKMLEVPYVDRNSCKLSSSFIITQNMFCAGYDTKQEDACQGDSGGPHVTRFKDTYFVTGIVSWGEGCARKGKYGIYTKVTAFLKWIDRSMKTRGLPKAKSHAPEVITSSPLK
Chain of Factor Xa (P00742 41-179 limits assumed): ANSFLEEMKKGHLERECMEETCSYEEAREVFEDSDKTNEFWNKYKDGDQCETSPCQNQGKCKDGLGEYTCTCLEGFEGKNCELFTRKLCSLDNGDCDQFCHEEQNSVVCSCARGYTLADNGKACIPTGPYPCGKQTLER
Chain of Prothrombinase (P00742 235-488 limits assumed): as the sequence (P00742 235-488 limits assumed) above
Chain of Prothrombinase (P00742 41-179 limits assumed): as the sequence (P00742 41-179 limits assumed) above
Chain of Prothrombinase (P12259 29-737 partner limits assumed): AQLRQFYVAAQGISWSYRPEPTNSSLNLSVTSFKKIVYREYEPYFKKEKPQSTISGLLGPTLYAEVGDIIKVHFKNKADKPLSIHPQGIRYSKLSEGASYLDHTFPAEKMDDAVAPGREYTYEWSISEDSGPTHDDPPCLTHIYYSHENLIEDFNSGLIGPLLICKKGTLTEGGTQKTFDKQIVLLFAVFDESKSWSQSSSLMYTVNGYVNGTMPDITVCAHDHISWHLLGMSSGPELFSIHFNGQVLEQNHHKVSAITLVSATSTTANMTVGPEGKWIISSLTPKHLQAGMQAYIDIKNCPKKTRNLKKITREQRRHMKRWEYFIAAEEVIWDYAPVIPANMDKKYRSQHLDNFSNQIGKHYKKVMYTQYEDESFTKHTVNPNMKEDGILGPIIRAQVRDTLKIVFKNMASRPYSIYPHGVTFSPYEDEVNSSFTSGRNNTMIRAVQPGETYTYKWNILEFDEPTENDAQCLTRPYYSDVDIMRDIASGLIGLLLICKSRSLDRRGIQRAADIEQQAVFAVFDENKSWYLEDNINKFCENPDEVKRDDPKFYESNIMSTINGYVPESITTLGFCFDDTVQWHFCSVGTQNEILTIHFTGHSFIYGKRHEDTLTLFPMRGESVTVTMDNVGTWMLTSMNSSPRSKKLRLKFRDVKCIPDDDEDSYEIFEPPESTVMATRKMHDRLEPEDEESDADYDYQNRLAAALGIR
Chain of Prothrombinase (P12259 1574-2224 partner limits assumed): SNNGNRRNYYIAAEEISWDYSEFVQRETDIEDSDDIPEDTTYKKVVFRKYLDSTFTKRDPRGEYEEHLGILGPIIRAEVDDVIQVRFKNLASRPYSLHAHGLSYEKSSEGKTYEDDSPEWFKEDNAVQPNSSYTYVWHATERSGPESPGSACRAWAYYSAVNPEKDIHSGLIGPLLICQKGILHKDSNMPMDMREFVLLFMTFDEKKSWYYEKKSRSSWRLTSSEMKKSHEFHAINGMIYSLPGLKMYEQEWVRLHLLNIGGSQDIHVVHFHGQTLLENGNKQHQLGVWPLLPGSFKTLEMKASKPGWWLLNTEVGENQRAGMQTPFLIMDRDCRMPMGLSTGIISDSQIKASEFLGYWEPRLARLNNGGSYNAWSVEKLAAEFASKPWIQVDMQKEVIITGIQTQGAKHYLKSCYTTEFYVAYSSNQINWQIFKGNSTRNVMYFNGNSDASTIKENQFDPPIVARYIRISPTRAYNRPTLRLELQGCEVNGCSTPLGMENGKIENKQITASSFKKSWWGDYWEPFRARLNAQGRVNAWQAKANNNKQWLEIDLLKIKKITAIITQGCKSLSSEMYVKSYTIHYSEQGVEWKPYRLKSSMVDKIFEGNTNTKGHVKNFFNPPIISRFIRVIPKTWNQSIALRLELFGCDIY

IC50 [1] | IC50 [2] | IC50 [3] | Structure (SMILES)
0.059 µM | 139 µM | 20 µM | CC(=N)N1CCC(Oc2ccc(C(=O)NCc3cccc(C(=N)N)c3)cc2)CC1
0.201 µM | 270 µM | 4 µM | COC(=O)C(Cc1cccc(C(=N)N)c1)NC(=O)c1ccc(OC2CCN(C(C)=N)CC2)cc1 (stereo not drawn)
